Test results as given in paper PMC4436593, “Endoplasmic reticulum stress-independent activation of unfolded protein response kinases by a small molecule ATP-mimic” (eLife, 2015).
Values belong to the molecule of their own block, whether it stands above or below them.

Assays:
IRE1α-KR43 [1] = molecular target: T1, IRE1α-KR43 (Homo sapiens, UniProt O75460); experiment: FRET-based RNA cleavage assay (fluorescent HP17 substrate) of IRE1α-KR43 RNase activity
IRE1α-KR43 [2] = molecular target: T1, IRE1α-KR43; experiment: IRE1α-KR43 RNA cleavage assay with 5′ [32P]-labeled RNA substrate HP21 (kobs, single turnover); format: biochemical; set-up: IRE1α-KR43 comprises the soluble cytoplasmic portion of IRE1α, composed of the kinase and RNase domains plus 43 amino acids of the linker; 6xHis (N, cleaved yes); made in house; host or cells: SF21 insect cells; settings: for fold activation of IRE1α-KR43 RNase activity / IRE1α RNase activation (in words): compounds 1 μM, IRE1α-KR43 200 nM; for fold activation of IRE1α-KR43 RNase activity: [32P]-labeled HP21; for IRE1α RNase activation (in words): versus DMSO control or cmp6/cmp7
Protocol: To this end, we modified the molecule by substituting urea-linked and variably m- and p-substituted phenyl groups for the benzimidazole of APY29. Diphenyl urea linkers have previously been used successfully in the design of kinase inhibitors ([Dar et al., 2008]; [Dar and Shokat, 2011]; [Korennykh et al., 2012]). In exploring the addition of this chemotype on the APY29 scaffold, we generated a panel of 10 variants (Figure 1B). Each member of the panel was tested in an RNase activity assay using recombinant IRE1α-KR43 and a labeled short hairpin RNA substrate derived from human XBP1 mRNA. IRE1α-KR43 comprises the soluble cytoplasmic portion of IRE1α, composed of the kinase and RNase domains plus 43 amino acids of the linker that bridges the kinase to its transmembrane domain.
Human IRE1α-KR43 with a hexa-histidine (6xHis) tag in its N-terminus was expressed and purified in SF21 cells as described ([Li et al., 2010]). Cells were lysed in buffer containing 20 mM Tris-HCl, pH 7.5, 600 mM NaCl, 2 mM MgCl2, 3 mM imidazole, 10% glycerol, 1% Triton X-100, 3 mM β-mercaptoethanol, COMPlete protease inhibitors (Roche), and PhosSTOP phosphatase inhibitor cocktail (Roche) and passed through an AVESTIN emulsiflex-C3 3× times for complete lysis. The lysate was cleared using centrifugation at 100,000×g. Clear lysate was allowed to incubate on Ni-NTA agarose (Qiagen) beads for 2 hr before being washed 3× times with buffer containing 20 mM Tris-HCl, pH7.5, 600 mM NaCl, 2 mM MgCl2, 30 mM imidazole, 10% glycerol, and 3 mM β-mercaptoethanol. Protein was eluted from the column by raising the imidazole concentration to 250 mM. The eluate was then passed through a HiTrap desalting column (GE Healthcare). Lastly, the 6xHis was cleaved as described ([Li et al., 2010]) and the resulting protein was then loaded onto a HisTrap HP, 5 × 5 ml column to remove the uncleaved protein. The cleaved protein was then loaded on a Mono-S 5/50 GL column (GE Healthcare), and the eluate was then concentrated to 5 mg/ml and loaded on a Superdex 200 HR 10/300 (GE Healthare) column in buffer containing 20 mM Tris-HCl pH 7.5, 250 mM NaCl, 5% Glycerol and 5 mM tris(2-carboxyethyl)phosphine (TCEP). The pure protein solution was aliquoted and stored at −80°C.

[3] = molecular target: T2, GST-PERK kinase domain (580–1077 aa) (Mus musculus, UniProt Q9Z2B5); experiment: In vitro GST-PERK kinase assay (eIF2α phosphorylation with γ-[32P]-ATP)
T2 sequence (Q9Z2B5 580-1077): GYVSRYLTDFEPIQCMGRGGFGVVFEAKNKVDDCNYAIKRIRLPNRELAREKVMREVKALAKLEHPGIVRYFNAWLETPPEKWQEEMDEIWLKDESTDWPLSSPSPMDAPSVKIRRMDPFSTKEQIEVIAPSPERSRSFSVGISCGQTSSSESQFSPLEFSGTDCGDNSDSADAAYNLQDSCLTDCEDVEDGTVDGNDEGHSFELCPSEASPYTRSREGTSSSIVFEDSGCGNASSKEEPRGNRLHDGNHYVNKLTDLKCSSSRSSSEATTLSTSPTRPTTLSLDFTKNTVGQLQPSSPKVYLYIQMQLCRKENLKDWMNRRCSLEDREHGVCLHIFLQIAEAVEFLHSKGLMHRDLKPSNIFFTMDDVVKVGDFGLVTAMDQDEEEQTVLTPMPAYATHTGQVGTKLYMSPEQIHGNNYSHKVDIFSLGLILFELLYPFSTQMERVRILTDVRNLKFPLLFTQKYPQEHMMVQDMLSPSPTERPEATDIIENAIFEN

HEK293T cells = experiment: HEK293T cell viability (CellTiter-Blue, 24 hr); format: cell-based; settings: STS dose response + 1 μM GSK PERK inhibitor
Protocol: HEK293T cells were grown in DMEM (Sigma) complete media containing 10% FBS, 10 units/ml penicillin (Invitrogen), and 10 μg/ml streptomycin (Invitrogen). Cells were plated at a density of 30,000 cells per well in 96-well black plates with clear flat bottoms (Corning, Sigma-Aldrich) 24 hr before the experiment. A 12-point semi-logarithmic dilution series of compounds was made starting at 30 μM not to exceed 0.1% DMSO after final dilution into the growth media. Viability assays were conducted over the course of 24 hr. Cell viability was determined using CellTiter-Blue (Promega) following the manufacturer's instructions. […] Experiments were done in triplicate, and mean values were computed for each data point.

[4] = tested on: IRE1α-GFP in T-REx293 cells; experiment: IRE1-GFP foci formation in T-REx293 cells (confocal microscopy); format: cell-based; settings: doxycycline-induced IRE1α-GFP
Description: We next used a T-REx293 cell line, containing a genome-integrated doxycycline-inducible IRE1α-GFP fusion gene, to monitor IRE1α oligomerization in vivo ([Li et al., 2010]). In the presence of doxycycline, IRE1α-GFP was expressed and localized to the ER (Figure 2D). […] Furthermore, the foci dissolved by 8 hr of treatment as cells attenuated IRE1α signaling even in the presence of unmitigated ER stress (Figure 2D, upper panels) ([Li et al., 2010]). […] While Tm-induced foci became larger and fewer over time as previously observed, IPA-induced foci remained small and numerous.
T-REx293 cells were split 2 days before imaging onto glass-bottom micro-well dishes (MatTek) at 5 × 10^4 cells/dish. Doxycyclin-containing medium (10 nM doxycycline) was added for 24 hr, withdrawn before imaging and replaced with imaging media (Hank's Balanced Salt Solution [Gibco], 2% FBS, and 5 mM HEPES pH 7.0). Images were acquired on a spinning-disk confocal microscope as described ([Li et al., 2010]).

[5] = tested on: ATF6 transcriptional targets HERPUD1 (HERP1) and DERLIN3 (DERL3); experiment: ATF6 target mRNAs HERP1 and DERL3 by RT-PCR in HEK293T cells; format: cell-based; settings: IPA 1 μM and 4 μM, Tm
Description: To assess the effects of IPA on the activity of the two other UPR branches, we first examined activation of ATF6. To this end, we monitored mRNA levels by RT-PCR for two ATF6-driven transcriptional target genes, HERP1 and DERL3, in HEK293T cells.
Cells were lysed and total RNA was collected (Total RNA Kit 1, EZ-RNA, EZNA [USA]). PolyA^+ mRNA was reverse transcribed with M-MLV (Invitrogen), and the resulting cDNA was used as a template for PCR amplification across the fragment of XBP1 cDNA containing the intron. Primers used to amplify human XBP1: 5′-[…]-3′ and 5′-[…]-3′. To amplify murine XBP1: 5′-[…]-3′ and 5′-[…]-3′. PCR conditions were as follows: 95°C for 5 min, 95°C for 1 min, 58°C for 30 s, 72°C for 30 s, and 72°C for 5 min, with 20 cycles of amplification. PCR products were resolved on a 2.5% agarose tris-acetate EDTA (TAE) gel. As previously reported, a hybrid amplicon species consisting of unspliced Xbp-1 annealed to spliced Xbp-1 can also be produced through this PCR reaction and was visible as a slower migrating band above the unspliced amplicon. The same cDNA was used as template for PCR of DERLIN-3 and HERPUD1, both ATF6 targets, and GAPDH, which was used as loading control. Primers used included the following: DERLIN-3, 5′-[…]-3′ and 5′-[…]-3′; HERPUD1-1, 5′-[…]-3′ and 5′-[…]-3′; GAPDH, 5′-[…]-3′ and 5′-[…]-3′. […]

[6] = molecular target: the molecule itself; experiment: cell-based or functional assay
[7] = molecular target: the molecule itself; experiment: SEC; GST-PERK purified on GST-Sepharose and Superdex 200 10/300 gel filtration in buffer B (50 mM Tris pH 7.5, 50 mM NaCl, 5 mM MgCl2, 3 mM DTT, 1% glycerol); the paper does not say how the dimer was determined
[8] = compound 20 μM, RNase activity as a function of IRE1α-KR43 concentration

T1 sequence (O75460 465-977 limits assumed): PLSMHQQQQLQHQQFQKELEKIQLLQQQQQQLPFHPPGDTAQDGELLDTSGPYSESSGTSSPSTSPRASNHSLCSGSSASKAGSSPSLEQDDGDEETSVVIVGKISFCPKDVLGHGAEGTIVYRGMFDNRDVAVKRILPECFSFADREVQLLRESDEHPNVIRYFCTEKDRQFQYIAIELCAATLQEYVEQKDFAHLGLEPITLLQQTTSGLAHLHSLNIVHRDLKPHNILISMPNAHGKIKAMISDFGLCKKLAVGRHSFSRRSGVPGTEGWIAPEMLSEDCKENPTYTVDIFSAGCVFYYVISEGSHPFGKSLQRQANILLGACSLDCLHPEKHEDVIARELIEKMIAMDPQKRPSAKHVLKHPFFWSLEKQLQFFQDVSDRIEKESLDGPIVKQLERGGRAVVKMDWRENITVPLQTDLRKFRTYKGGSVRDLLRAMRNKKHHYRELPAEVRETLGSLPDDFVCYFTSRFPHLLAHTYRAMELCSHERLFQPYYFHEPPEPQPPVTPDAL

- EC50 (IRE1α-KR43 [1]): 5.2 µM
- fold activation of IRE1α-KR43 RNase activity (IRE1α-KR43 [2]): fivefold
- IC50 [3]: 0.69 µM
Molecule: c1cc(Nc2cc(C3CC3)[nH]n2)nc(Nc2ccc3[nH]cnc3c2)n1 [APY29, reference compound]

Molecule: CN[C@@H]1C[C@H]2O[C@@](C)([C@@H]1OC)n1c3ccccc3c3c4c(c5c6ccccc6n2c5c31)C(=O)NC4 [STS, staurosporine, reference compound]
- change of cell viability dose response in the presence of 1 μM GSK (HEK293T cells): No change in cell viability was observed

Molecule: O=C(Nc1ccc(Nc2nccc(Nc3cc(C4CC4)[nH]n3)n2)cc1)Nc1cccc(C(F)(F)F)c1 [cmp1]
- EC50 (IRE1α-KR43 [1]): 0.95 µM
- fold lower enzyme concentration at ½ kmax, obs versus no activator (IRE1α-KR43 [2]; compound 20 μM): 3 fold
- 1/2kmax, obs (IRE1α-KR43 concentration at half-maximal kobs) (IRE1α-KR43 [2]; [8]): 3 µM
- Hill coefficient n (IRE1α-KR43 [2]; [8]): 3.8
- fold activation of IRE1α-KR43 RNase activity (IRE1α-KR43 [2]): 10–100 fold
- IC50 [3]: 4.5 µM

- fold activation of IRE1α-KR43 RNase activity (IRE1α-KR43 [2]): 10–100 fold
Molecule: Cc1ccc(NC(=O)Nc2ccc(Nc3nccc(Nc4cc(C5CC5)[nH]n4)n3)cc2)cc1 [cmp2]

- fold activation of IRE1α-KR43 RNase activity (IRE1α-KR43 [2]): 10–100 fold
Molecule: CCc1ccc(NC(=O)Nc2ccc(Nc3nccc(Nc4cc(C5CC5)[nH]n4)n3)cc2)cc1 [cmp3]

- fold activation of IRE1α-KR43 RNase activity (IRE1α-KR43 [2]): 10–100 fold
Molecule: COc1cccc(NC(=O)Nc2ccc(Nc3nccc(Nc4cc(C5CC5)[nH]n4)n3)cc2)c1 [cmp4]

- fold activation of IRE1α-KR43 RNase activity (IRE1α-KR43 [2]): 10–100 fold
Molecule: COc1ccc(NC(=O)Nc2ccc(Nc3nccc(Nc4cc(C5CC5)[nH]n4)n3)cc2)cc1 [cmp5]

- fold activation of IRE1α-KR43 RNase activity (IRE1α-KR43 [2]): 900 fold
Molecule: O=C(Nc1ccc(I)cc1)Nc1ccc(Nc2nccc(Nc3cc(C4CC4)[nH]n3)n2)cc1 [cmp7]

- IRE1α RNase activation (in words) (IRE1α-KR43 [2]): decreased activities
Molecule: O=C(Nc1ccc(Br)cc1)Nc1ccc(Nc2nccc(Nc3cc(C4CC4)[nH]n3)n2)cc1 [cmp8]

- IRE1α RNase activation (in words) (IRE1α-KR43 [2]): decreased activities
Molecule: CC(C)c1ccc(NC(=O)Nc2ccc(Nc3nccc(Nc4cc(C5CC5)[nH]n4)n3)cc2)cc1 [cmp9]

- IRE1α RNase activation (in words) (IRE1α-KR43 [2]): decreased activities
Molecule: CC(C)(C)c1ccc(NC(=O)Nc2ccc(Nc3nccc(Nc4cc(C5CC5)[nH]n4)n3)cc2)cc1 [cmp10]

Molecule: tunicamycin [Tm, reference compound]
- IRE1α-GFP foci formation [4]: rapidly induced the relocalization of IRE1α-GFP into discrete foci
- induction of ATF6 target genes HERP1 and DERL3 [5]: induced the expression of these two genes

B1: PERK cytosolic domain (535–1093 Δ660–868) (domain or fragment, human, UniProt Q9NZJ5 535-1093, looked up)
chain: ATTFIVRRLFHPHPHRQRKESETQCQTENKYDSVSGEANDSSWNDIKNSGYISRYLTDFEPIQCLGRGGFGVVFEAKNKVDDCNYAIKRIRLPNRELAREKVMREVKALAKLEHPGIVRYFNAWLKNTTEKLQPSSPKVYLYIQMQLCRKENLKDWMNGRCTIEERERSVCLHIFLQIAEAVEFLHSKGLMHRDLKPSNIFFTMDDVVKVGDFGLVTAMDQDEEEQTVLTPMPAYARHTGQVGTKLYMSPEQIHGNSYSHKVDIFSLGLILFELLYPFSTQMERVRTLTDVRNLKFPPLFTQKYPCEYVMVQDMLSPSPMERPEAINIIENAVFEDLDFPGKTVLRQRSR
- rate of eIF2α phosphorylation by the PERK cytoplasmic domain against IPA concentration, fold change normalised to DMSO control; greatest activation at 500 nM IPA [6]: 3.3 fold

B2: GST-PERK kinase domain (580–1077 aa) (domain or fragment, murine, UniProt Q9Z2B5 580-1077, looked up)
chain: GYVSRYLTDFEPIQCMGRGGFGVVFEAKNKVDDCNYAIKRIRLPNRELAREKVMREVKALAKLEHPGIVRYFNAWLETPPEKWQEEMDEIWLKDESTDWPLSSPSPMDAPSVKIRRMDPFSTKEQIEVIAPSPERSRSFSVGISCGQTSSSESQFSPLEFSGTDCGDNSDSADAAYNLQDSCLTDCEDVEDGTVDGNDEGHSFELCPSEASPYTRSREGTSSSIVFEDSGCGNASSKEEPRGNRLHDGNHYVNKLTDLKCSSSRSSSEATTLSTSPTRPTTLSLDFTKNTVGQLQPSSPKVYLYIQMQLCRKENLKDWMNRRCSLEDREHGVCLHIFLQIAEAVEFLHSKGLMHRDLKPSNIFFTMDDVVKVGDFGLVTAMDQDEEEQTVLTPMPAYATHTGQVGTKLYMSPEQIHGNNYSHKVDIFSLGLILFELLYPFSTQMERVRILTDVRNLKFPLLFTQKYPQEHMMVQDMLSPSPTERPEATDIIENAIFEN
notes: PERK, murine, cytosolic kinase domain, residues 580–1077; The dimer may therefore be held by GST; also called PERK-GST fusion protein; GST-PERK fusion protein; source: E. coli BL21DE3 RIPL, purified (GST-Sepharose, Superdex 200 10/300); not shown: GST, N-terminal, kept
- stoichiometry N [7]: 2
